{
  "source": "patent US5072038A",
  "about": "“2,3,4,5-tetrahalogenobenzene derivatives” (Bayer Aktiengesellschaft, priority 1984, dated 1991)",
  "assay_in_all_cases": "MIC, agar dilution test",
  "type_in_all_cases": "cell-based",
  "key": {"E. coli 445/7": {"system": "E. coli 445/7", "details": "Escherichia coli, agar dilution test/isosensitest medium", "description": "(§1) | Agar dilution test/isosensitest medium"}, "E. coli Neumann": {"system": "E. coli Neumann", "details": "Escherichia coli, agar dilution test/isosensitest medium", "description": "as §1"}, "E. coli T 7": {"system": "E. coli T 7", "details": "Escherichia coli, T7; E. coli T 7; agar dilution test/isosensitest medium; read-out: MIC", "description": "as §1"}, "Klebsiella 6179": {"system": "Klebsiella 6179", "details": "agar dilution test/isosensitest medium", "description": "as §1"}, "Klebsiella 63": {"system": "Klebsiella 63", "details": "agar dilution test/isosensitest medium", "description": "as §1"}, "Proteus 1017": {"system": "Proteus 1017", "details": "agar dilution test/isosensitest medium", "description": "as §1"}, "Providencia 12012": {"system": "Providencia 12012", "details": "agar dilution test/isosensitest medium", "description": "as §1"}, "Providencia 12052": {"system": "Providencia 12052", "details": "agar dilution test/isosensitest medium", "description": "as §1"}, "Pseudom. Ellsworth": {"system": "Pseudom. Ellsworth", "details": "agar dilution test/isosensitest medium", "description": "as §1"}, "Staph. 133": {"system": "Staph. 133", "details": "agar dilution test/isosensitest medium", "description": "as §1"}, "Staph. 1756": {"system": "Staph. 1756", "details": "agar dilution test/isosensitest medium", "description": "as §1"}, "Staph. FK 422": {"system": "Staph. FK 422", "details": "agar dilution test/isosensitest medium", "description": "as §1"}, "[1]": {"details": "E. coli 445/7 (first MIC table)"}, "[2]": {"details": "445/7, E. coli 455/7 (second MIC table)"}},
  "data": [
    {"smiles": "O=C(O)c1cn(C2CC2)c2c(F)c(N3CCNCC3)c(Cl)cc2c1=O", "note": "[Example 1, 6-chloro-1-cyclopropyl-8-fluoro-1,4-dihydro-4-oxo-7-(1-piperazinyl)-3-quinolinecarboxylic acid]", "values": [
      {"measurement": "MIC", "setting": "E. coli 445/7; [1]", "result": 4, "unit": "µg/mL"},
      {"measurement": "MIC", "setting": "E. coli Neumann", "result": "≤ 0.015", "unit": "µg/mL"},
      {"measurement": "MIC", "setting": "E. coli T 7", "result": "≤ 0.015", "unit": "µg/mL"},
      {"measurement": "MIC", "setting": "Klebsiella 6179", "result": 0.03, "unit": "µg/mL"},
      {"measurement": "MIC", "setting": "Klebsiella 63", "result": "≤ 0.015", "unit": "µg/mL"},
      {"measurement": "MIC", "setting": "Proteus 1017", "result": "≤ 0.015", "unit": "µg/mL"},
      {"measurement": "MIC", "setting": "Providencia 12012", "result": "≤ 0.015", "unit": "µg/mL"},
      {"measurement": "MIC", "setting": "Providencia 12052", "result": 8, "unit": "µg/mL"},
      {"measurement": "MIC", "setting": "Pseudom. Ellsworth", "result": 0.06, "unit": "µg/mL"},
      {"measurement": "MIC", "setting": "Staph. 133", "result": 0.25, "unit": "µg/mL"},
      {"measurement": "MIC", "setting": "Staph. 1756", "result": 0.25, "unit": "µg/mL"},
      {"measurement": "MIC", "setting": "Staph. FK 422", "result": 0.25, "unit": "µg/mL"}
    ]},
    {"smiles": "CC1CN(c2c(Cl)cc3c(=O)c(C(=O)O)cn(C4CC4)c3c2F)CC(C)O1", "note": "(centres unmarked) [Example 17, 6-chloro-1-cyclopropyl-8-fluoro-1,4-dihydro-7-(2,6-dimethyl-4-morpholinyl)-4-oxo-3-quinolinecarboxylic acid]", "values": [
      {"measurement": "MIC", "setting": "Staph. 1756", "result": "≤ 0.015", "unit": "µg/mL"},
      {"measurement": "MIC", "setting": "Staph. FK 422", "result": "≤ 0.015", "unit": "µg/mL"}
    ]},
    {"smiles": "CC1CN(c2c(F)cc3c(=O)c(C(=O)O)cn(C4CC4)c3c2Cl)CCN1", "note": "(centres unmarked) [Example 20, 8-chloro-1-cyclopropyl-6-fluoro-1,4-dihydro-7-(3-methyl-1-piperazinyl)-4-oxo-3-quinolinecarboxylic acid]", "values": [
      {"measurement": "MIC", "setting": "E. coli 445/7; [2]", "result": 1, "unit": "µg/mL"},
      {"measurement": "MIC", "setting": "E. coli Neumann", "result": "≤ 0.015", "unit": "µg/mL"},
      {"measurement": "MIC", "setting": "E. coli T 7", "result": "≤ 0.015", "unit": "µg/mL"},
      {"measurement": "MIC", "setting": "Klebsiella 6179", "result": 0.03, "unit": "µg/mL"},
      {"measurement": "MIC", "setting": "Klebsiella 63", "result": "≤ 0.015", "unit": "µg/mL"},
      {"measurement": "MIC", "setting": "Proteus 1017", "result": "≤ 0.015", "unit": "µg/mL"},
      {"measurement": "MIC", "setting": "Providencia 12012", "result": 0.03, "unit": "µg/mL"},
      {"measurement": "MIC", "setting": "Providencia 12052", "result": 4, "unit": "µg/mL"},
      {"measurement": "MIC", "setting": "Pseudom. Ellsworth", "result": 0.25, "unit": "µg/mL"},
      {"measurement": "MIC", "setting": "Staph. 133", "result": 0.06, "unit": "µg/mL"},
      {"measurement": "MIC", "setting": "Staph. 1756", "result": 0.06, "unit": "µg/mL"},
      {"measurement": "MIC", "setting": "Staph. FK 422", "result": 0.06, "unit": "µg/mL"}
    ]},
    {"smiles": "CC(=O)CN1CCN(c2c(Cl)cc3c(=O)c(C(=O)O)cn(C4CC4)c3c2F)CC1.Cl", "note": "[Example 13, 6-chloro-1-cyclopropyl-8-fluoro-1,4-dihydro-4-oxo-7-[4-(2-oxopropyl)-1-piperazinyl]-3-quinolinecarboxylic acid hydrochloride]", "values": [
      {"measurement": "MIC", "setting": "E. coli 445/7; [2]", "result": 8, "unit": "µg/mL"},
      {"measurement": "MIC", "setting": "E. coli Neumann", "result": "≤ 0.015", "unit": "µg/mL"},
      {"measurement": "MIC", "setting": "E. coli T 7", "result": "≤ 0.015", "unit": "µg/mL"},
      {"measurement": "MIC", "setting": "Klebsiella 6179", "result": 0.06, "unit": "µg/mL"},
      {"measurement": "MIC", "setting": "Klebsiella 63", "result": "≤ 0.015", "unit": "µg/mL"},
      {"measurement": "MIC", "setting": "Proteus 1017", "result": "≤ 0.015", "unit": "µg/mL"},
      {"measurement": "MIC", "setting": "Providencia 12012", "result": "≤ 0.015", "unit": "µg/mL"},
      {"measurement": "MIC", "setting": "Providencia 12052", "result": 16, "unit": "µg/mL"},
      {"measurement": "MIC", "setting": "Pseudom. Ellsworth", "result": 0.125, "unit": "µg/mL"},
      {"measurement": "MIC", "setting": "Staph. 133", "result": 0.25, "unit": "µg/mL"},
      {"measurement": "MIC", "setting": "Staph. 1756", "result": 0.25, "unit": "µg/mL"},
      {"measurement": "MIC", "setting": "Staph. FK 422", "result": 0.25, "unit": "µg/mL"}
    ]},
    {"smiles": "CC1CN(c2c(Cl)cc3c(=O)c(C(=O)O)cn(C4CC4)c3c2F)CCN1", "note": "(centres unmarked) [Example 2]", "values": [
      {"measurement": "MIC", "setting": "E. coli 445/7; [1]", "result": 8, "unit": "µg/mL"},
      {"measurement": "MIC", "setting": "E. coli Neumann", "result": "≤ 0.015", "unit": "µg/mL"},
      {"measurement": "MIC", "setting": "E. coli T 7", "result": "≤ 0.015", "unit": "µg/mL"},
      {"measurement": "MIC", "setting": "Klebsiella 6179", "result": 0.03, "unit": "µg/mL"},
      {"measurement": "MIC", "setting": "Klebsiella 63", "result": 0.03, "unit": "µg/mL"},
      {"measurement": "MIC", "setting": "Providencia 12012", "result": 0.03, "unit": "µg/mL"},
      {"measurement": "MIC", "setting": "Providencia 12052", "result": 16, "unit": "µg/mL"},
      {"measurement": "MIC", "setting": "Staph. 133", "result": 0.25, "unit": "µg/mL"},
      {"measurement": "MIC", "setting": "Staph. 1756", "result": 0.5, "unit": "µg/mL"},
      {"measurement": "MIC", "setting": "Staph. FK 422", "result": 0.25, "unit": "µg/mL"}
    ]},
    {"smiles": "O=C(O)c1cn(C2CC2)c2c(F)c(N3CCNC(C4CCCCC4)C3)c(Cl)cc2c1=O", "note": "(centres unmarked) [Example 8]", "values": [
      {"measurement": "MIC", "setting": "E. coli T 7", "result": "≤ 0.015", "unit": "µg/mL"},
      {"measurement": "MIC", "setting": "Staph. 133", "result": 0.06, "unit": "µg/mL"},
      {"measurement": "MIC", "setting": "Staph. 1756", "result": 0.06, "unit": "µg/mL"},
      {"measurement": "MIC", "setting": "Staph. FK 422", "result": 0.06, "unit": "µg/mL"}
    ]},
    {"smiles": "O=C(O)c1cn(C2CC2)c2c(F)c(N3CCN(CCO)CC3)c(Cl)cc2c1=O", "note": "[Example 7]", "values": [
      {"measurement": "MIC", "setting": "E. coli 445/7; [1]", "result": 16, "unit": "µg/mL"},
      {"measurement": "MIC", "setting": "E. coli Neumann", "result": "≤ 0.015", "unit": "µg/mL"},
      {"measurement": "MIC", "setting": "E. coli T 7", "result": "≤ 0.015", "unit": "µg/mL"},
      {"measurement": "MIC", "setting": "Klebsiella 6179", "result": 0.06, "unit": "µg/mL"},
      {"measurement": "MIC", "setting": "Klebsiella 63", "result": 0.06, "unit": "µg/mL"},
      {"measurement": "MIC", "setting": "Proteus 1017", "result": 0.125, "unit": "µg/mL"},
      {"measurement": "MIC", "setting": "Providencia 12052", "result": 16, "unit": "µg/mL"},
      {"measurement": "MIC", "setting": "Staph. 133", "result": 0.25, "unit": "µg/mL"},
      {"measurement": "MIC", "setting": "Staph. 1756", "result": 0.5, "unit": "µg/mL"},
      {"measurement": "MIC", "setting": "Staph. FK 422", "result": 0.5, "unit": "µg/mL"}
    ]},
    {"smiles": "CCn1cc(C(=O)O)c(=O)c2cc(F)c(N3CCNCC3)cc21", "note": "[Norfloxacin, 1-ethyl-6-fluoro-1,4-dihydro-4-oxo-7-(1-piperazinyl)-3-quinolinecarboxylicacid, reference compound]", "values": [
      {"measurement": "MIC", "setting": "E. coli 445/7; [2]", "result": 16, "unit": "µg/mL"},
      {"measurement": "MIC", "setting": "E. coli Neumann", "result": 0.06, "unit": "µg/mL"},
      {"measurement": "MIC", "setting": "E. coli T 7", "result": 0.03, "unit": "µg/mL"},
      {"measurement": "MIC", "setting": "Klebsiella 6179", "result": 0.25, "unit": "µg/mL"},
      {"measurement": "MIC", "setting": "Klebsiella 63", "result": 0.125, "unit": "µg/mL"},
      {"measurement": "MIC", "setting": "Proteus 1017", "result": 0.03, "unit": "µg/mL"},
      {"measurement": "MIC", "setting": "Providencia 12012", "result": 0.03, "unit": "µg/mL"},
      {"measurement": "MIC", "setting": "Providencia 12052", "result": 64, "unit": "µg/mL"},
      {"measurement": "MIC", "setting": "Pseudom. Ellsworth", "result": 0.125, "unit": "µg/mL"},
      {"measurement": "MIC", "setting": "Staph. 133", "result": 0.5, "unit": "µg/mL"},
      {"measurement": "MIC", "setting": "Staph. 1756", "result": 1, "unit": "µg/mL"},
      {"measurement": "MIC", "setting": "Staph. FK 422", "result": 0.5, "unit": "µg/mL"}
    ]}
  ]
}
